Reference: patent publication US8759318B2, “Phosphoramidate derivatives of guanosine nucleoside compounds for treatment of viral infections” (Inhibitex, Inc., priority 2009, dated 2014)

Experiments:
[1] = Protide stability in normal plasma, rat; format: in vitro ADME; settings: 37° C.
Description: (§1) Selected nucleoside 5′-phosphoramidates were examined for stability in human, cynomolgous monkey, rat and mouse plasma at 37° C. at both 30 min and 90 min time points.
(§2) Protide Stability in Normal Plasma: Plasma samples were prepared for analysis as follows. 50 μl of each test sample were distributed a 96-well V-bottom plate. 200 μl of acetonitrile containing 10 ng/ml of an internal standard was added to each plasma sample. The precipitated samples were centrifuged at 2500 rpm, 4° C. for 20 minutes in a Sorvall RT6000S centrifuge (Thermo Scientific, Waltham Mass.) and 100 μl of supernatant from each sample was transferred into a 96 deep well plate followed by the addition of 100 μl H2O to each sample. Samples were covered, mixed well by vortexing and maintained at 2-8° C. before and during analysis. 15 μl of each test sample was analyzed for protide concentrations by liquid chromatography coupled to tandem mass spectrometry (LC-MS/MS). Liquid chromatography was performed with an Agilent 1100 Series HPLC system equipped with a Synergi 4 μm Polar-RP, 30×2.0 mm column (Phenomenex, Torrance, Calif.). The HPLC system was coupled to an API 4000 triple quadrupole mass spectrometer (Applied Biosystems, Framingham, Mass.). Mass spectrometry was performed in positive ion mode and data was analyzed using Analyst® v1.4.2 software (Applied Biosystems, Framingham, Mass.). Data was presented as the percentage of compound recovered as compared to the 0 time point control.

[2] = Protide stability in normal plasma, human; format: in vitro ADME; settings: 37° C.
Description: as §1, §2

[3] = Protide stability in normal plasma, mouse; format: in vitro ADME; settings: 37° C.
Description: as §1, §2

[4] = Protide stability in normal plasma, cynomolgous monkey; format: in vitro ADME; settings: 37° C.
Description: as §1, §2

[5] = Mouse PK: 2'-C-methylguanosine triphosphate levels in liver; settings: 2'-C-methylguanosine triphosphate in mouse liver, 50 mg/kg PO
[6] = test system: HCV replicon (Genotype 1b); assay: Luciferase genotype 1b replicon potency assay; settings: Hepatitis C virus, GETYPE1B, read-out: IC50 μM, HCV genotype 1b luciferase replicon, Renilla luciferase reporter
[7] = mouse, in vivo, po, 50 mg/kg
Huh7 replicon cells = assay: Cytotoxicity assay (CellTiter-Glo); settings: read-out: CC50 μM; 72 h, CellTiter-Glo
in vitro = settings: human
[8] = Cytotoxicity assay (CellTiter-Glo); settings: human, Huh7 HCV replicon cells (genotype 1b)

C[C@H](NP(=O)(OC[C@H]1OC(n2cnc3c(=O)[nH]c(N)nc32)[C@](C)(O)[C@@H]1O)Oc1cccc2ccccc12)C(=O)OCC(C)(C)C (stereo partly drawn) [A, reference compound]
% Compound Remaining Compared to %100 Acetonitrile Control ([1]; 30 min): 0%
% Compound Remaining Compared to %100 Acetonitrile Control ([1]; 1.5 h): 0%
% Compound Remaining Compared to %100 Acetonitrile Control ([2]; 30 min): 83.2%
% Compound Remaining Compared to %100 Acetonitrile Control ([2]; 1.5 h): 80.8%
% Compound Remaining Compared to %100 Acetonitrile Control ([3]; 30 min): 0%
% Compound Remaining Compared to %100 Acetonitrile Control ([3]; 1.5 h): 0%
% Compound Remaining Compared to %100 Acetonitrile Control ([4]; 30 min): 98.5%
% Compound Remaining Compared to %100 Acetonitrile Control ([4]; 1.5 h): 102.4%
AUC0-6 [5]: 1584 ng·h/g

COc1nc(N)nc2c1ncn2[C@@H]1O[C@H](CO)[C@@H](O)[C@@]1(C)O [Example 2, (2R,3R,4R,5R)-2-(2-amino-6-methoxy-9H-purin-9-yl)-5-(hydroxymethyl)-3-methyltetrahydrofuran-3,4-diol]
IC50 [6]: 3.1 µM
Multiple Above IC90 at Cmax [7]: 25.1
AUC0-6 [5]: 8748 ng·h/g
AUC0-24 [5]: 30618 ng·h/g
CC50 (Huh7 replicon cells): > 100 µM

COc1nc(N)nc2c1ncn2C1O[C@H](COP(=O)(N[C@H](C(=O)OCC(C)(C)C)C(C)C)Oc2cccc3ccccc23)[C@@H](O)[C@@]1(C)O (stereo partly drawn) [Example 42, (2S)-neopentyl 2-((((2R,3R,4R)-5-(2-amino-6-methoxy-9H-purin-9-yl)-3,4-dihydroxy-4-methyltetrahydrofuran-2-yl)methoxy)(naphthalen-1-yloxy)phosphorylamino)-3-methylbutanoate]
% Compound Remaining Compared to %100 Acetonitrile Control ([1]; 30 min): 50.0%
% Compound Remaining Compared to %100 Acetonitrile Control ([1]; 1.5 h): 37.0%
% Compound Remaining Compared to %100 Acetonitrile Control ([2]; 30 min): 88.5%
% Compound Remaining Compared to %100 Acetonitrile Control ([2]; 1.5 h): 82.5%
CC50 (in vitro): 30 µM
IC50 [6]: 0.21 µM
% Compound Remaining Compared to %100 Acetonitrile Control ([3]; 30 min): 66.5%
% Compound Remaining Compared to %100 Acetonitrile Control ([3]; 1.5 h): 45.5%
% Compound Remaining Compared to %100 Acetonitrile Control ([4]; 30 min): 87.0%
% Compound Remaining Compared to %100 Acetonitrile Control ([4]; 1.5 h): 82.5%
AUC0-6 [5]: 1540 ng·h/g

CCOc1nc(N)nc2c1ncn2C1O[C@H](CO)[C@@H](O)[C@@]1(C)O (stereo partly drawn) [Example 72, (3R,4R,5R)-2-(2-amino-6-ethoxy-9H-purin-9-yl)-5-(hydroxymethyl)-3-methyltetrahydrofuran-3,4-diol]
IC50 [6]: 11 µM
CC50 at 72 h [8]: > 100 µM

CNc1nc(N)nc2c1ncn2C1O[C@H](CO)[C@@H](O)[C@@]1(C)O (stereo partly drawn) [Example 80, (3R,4R,5R)-2-(2-amino-6-(methylamino)-9H-purin-9-yl)-5-(hydroxymethyl)-3-methyltetrahydrofuran-3,4-diol]
IC50 [6]: 13 µM
CC50 at 72 h [8]: > 100 µM

C[C@@]1(O)[C@H](O)[C@@H](CO)O[C@H]1n1cnc2c(NCc3ccccc3)nc(N)nc21 [Example 84, (3R,4R,5R)-2-(2-amino-6-(benzylamino)-9H-purin-9-yl)-5-(hydroxymethyl)-3-methyltetrahydrofuran-3,4-diol]
IC50 [6]: 27 µM
CC50 at 72 h [8]: > 100 µM

CSc1nc(N)nc2c1ncn2[C@@H]1O[C@H](CO)[C@@H](O)[C@@]1(C)O [Example 88, (2R,3R,4R,5R)-2-(2-amino-6-(methylthio)-9H-purin-9-yl)-5-(hydroxymethyl)-3-methyltetrahydrofuran-3,4-diol]
IC50 [6]: 11 µM
CC50 at 72 h [8]: 150 µM

COc1nc(NCc2ccc(F)cc2)nc2c1ncn2[C@@H]1O[C@H](CO)[C@@H](O)[C@@]1(C)O [Example 92, (2R,3R,4R,5R)-2-(2-(4-fluorobenzylamino)-6-methoxy-9H-purin-9-yl)-5-(hydroxymethyl)-3-methyltetrahydrofuran-3,4-diol]
IC50 [6]: > 40 µM
CC50 at 72 h [8]: > 100 µM

COc1nc(N)nc2c1ncn2C1O[C@H](CO)C[C@@]1(C)O (stereo partly drawn) [Example 94, (3R,5S)-2-(2-amino-6-methoxy-9H-purin-9-yl)-5-(hydroxymethyl)-3-methyl-tetrahydrofuran-3-ol]
IC50 [6]: > 100 µM
CC50 at 72 h [8]: > 100 µM

C[C@H](NP(=O)(OC[C@H]1OC(n2cnc3c(=O)[nH]c(N)nc32)[C@](C)(O)[C@@H]1O)Oc1cccc2ccccc12)C(=O)O[C@@H](C)c1ccccc1 (stereo partly drawn) [G, reference compound]
AUC0-6 [5]: 6977 ng·h/g

CC(C)[C@H](NP(=O)(OC[C@H]1OC(n2cnc3c(=O)[nH]c(N)nc32)[C@](C)(O)[C@@H]1O)Oc1cccc2ccccc12)C(=O)OCc1ccccc1 (stereo partly drawn) [M, reference compound]
AUC0-6 [5]: 1937 ng·h/g
